A short description of data set [1]: Determination of dissociation constants (pKa) by capillary zone electrophoresis. The data set is classed as physicochemical. The note with it: 25 °C, BGE pH 3.9 to 9.2, mean and standard deviation of four measurements, read-out: pKa (exp.). As to the method:
The dissociation constants (pKa) of studied compounds were determined by means of CE. The measured values and values predicted by chemical software (ACD Percepta ver. 2012, Advanced Chemistry Development, Toronto, ON, Canada; MarvinSketch 6.0.6., ChemAxon Kft., Budapest, Hungary) are shown in Table 1. The correlation coefficients of the experimentally determined values were greater than 0.999 and standard deviation equal or less than 0.02 units (n = 4). The experimental values are in the range 6.35–6.92 and the highest values were recorded for the 1-(2-methoxyphenylpiperazine) derivatives 7b, 8b, 9b. The clinically used β-blockers are usually stronger bases, the values of studied compounds are lower due to the presence of piperazine moiety instead of secondary amine group.
The CE experiments were carried out with an Agilent 3D CE (Agilent Technologies) capillary electrophoresis system equipped with an autosampler, automatic injector, photodiode array detector, and an air cooling unit for the capillary. The instrument control and analysis were performed with 3D-CE ChemStation software (Agilent Technologies). Uncoated fused-silica capillary (Agilent Technologies) of 50 µm internal diameter, total length of 33.0 cm and effective length (to the detector) of 24.5 cm was used. The capillary cassette temperature was maintained at 25 °C with air cooling. Three milligrams of the sample were dissolved in 1 mL of 50% methanol and 10 times diluted with appropriate background electrolyte before analysis. Samples were injected hydrodynamically at 40 mbar pressure for 4.0 s. Running voltage was 15 kV of positive polarity. UV detection was performed at 254 nm. As a marker of electroosmotic flow, mesityl oxide was used. The effective mobilities were recorded for BGE pH values in the range of 3.9 to 9.2 (ionic strength equal to 10 mM), 4 runs at 10 different buffer pH values. The effective mobilities (μeff) were calculated according to Equation (3). (3) μeff=LtotLeff/U(1/tmig−1/tEOF) where tmig is the migration time of the analyte and tEOF is the migration time of a neutral marker compound that is of the same velocity as the electroosmotic flow (EOF). Leff is distance from the injection end of capillary to the detector and Ltot is the total length of the capillary over which the voltage U was applied. SigmaPlot for Windows version 11.0 (Systat Software GmbH, Erkrath, Germany) was employed for the nonlinear regression analysis of µeff/pH relationship having characteristic sigmoidal shape with inflection point indicating pKa value.
The pH measurements were taken with a combination glass electrode (HI 1332B, HANNA Instruments, Woonsocket, RI, USA), using a Thermo Orion 370 PerpHect® pH meter (ThermoFisher Scientific).

Data set [2] in a line: Lipophilicity index (log kw7.4, log kw) by RP-HPLC. It is filed as physicochemical. The note with it: for log kw7.4: RP-HPLC, ZORBAX Extend-C18, pH 7.4, extrapolated to 100% water, mean and standard deviation; for log kw: neutral form, calculated from log kw7.4 and pKa by Equation (2). As to the method: The lipophilicity indexes log kw7.4 were measured by means of RP-HPLC method. The log kw values were then calculated according to Equation (2) given in Section 3.3. The correlation coefficients were greater than 0.999 with covariance equal or less than 0.03 units (n = 2). The log kw^7.4 values of synthetized compounds were measured by a Dionex Ultimate 3000 (Thermo Fisher Scientific) HPLC system controlled through the Chromeleon® Chromatography Data System (version 7.2). The separation was performed on ZORBAX Extend-C18 (3.5 µm, 3 × 150 mm) column (Agilent Technologies). Mobile phase consists of 0.02 M […] with addition of 0.15% of n-decylamine (pH = 7.4; constituent A) and methanol to which 0.25% of n-octanol was added (constituent B). The total flow rate was 0.4 mL/min, the injection volume was 1 μL, and the column temperature was maintained at 25 °C. The detection wavelength of 254 nm was chosen. One milligram of the sample was dissolved in 1 mL of methanol and diluted to the concentration 0.1 mg/mL with 50% methanol. Retention factors of the compound were measured under isocratic conditions in the range 20:80–50:50 (A:B; v/v), 5 values for each factor in duplicate. Linear regression analysis was performed and log kw7.4 values were calculated according to Equation (1). (1) logk=−Sϕ+logkw where log k represents a logarithm of individual isocratic factor, φ is the organic phase concentration, and S is a constant derived by linear regression analysis. The retention factor corresponding to the neutral form (log kw) was estimated from the apparent log kw7.4 by using Equation (2). (2) logkw=logkwapp+log(1+10^pKa−pH)

For orientation: melting point means the temperature of the solid-liquid transition. One may read the pKa as the negative logarithm of the acid dissociation constant.

In the case of `COc1ccc(N2CCN(CC(O)COC(=O)c3ccc(OCCOC(C)C)cc3)CC2)cc1.Cl.Cl` (stereo not drawn) [8c, 1-{2-Hydroxy-3-[(4-isopropoxyethoxybenzoyl)oxy]propyl}-4-(4-methoxyphenyl)piperazinediium dichloride], the melting point lay in the range of 193 to 195 °C. Also, the pKa in data set [1] came out at 6.35 ± 0.02. Further, in data set [2], the “log kw7.4” value is 3.90 ± 0.02 and the log kw is 3.93 ± 0.06.
Take `C=CCOCCOc1ccc(C(=O)OCC(O)CN2CCN(c3ccc(OC)cc3)CC2)cc1.Cl.Cl` (stereo not drawn) [7c, 1-{3-[(4-Allyloxyethoxybenzoyl)oxy]-2-hydroxypropyl}-4-(4-methoxyphenyl)piperazinediium dichloride]: the melting point lay within 170 to 173 °C. For the same compound, the pKa in data set [1] was 6.49 ± 0.02. For the same compound, in data set [2], the “log kw7.4” value is 3.67 ± 0.02 and the log kw is given as 3.71 ± 0.08.
For `COc1ccccc1N1CCN(CC(O)COC(=O)c2ccc(OCCOC(C)C)cc2)CC1.Cl.Cl` (stereo not drawn) [8b, 1-{2-Hydroxy-3-[(4-isopropoxyethoxybenzoyl)oxy]propyl}-4-(2-methoxyphenyl)piperazinediium dichloride], in that order: 154 to 156 °C, 6.92 ± 0.01, 4.03 ± 0.02 and 4.15 ± 0.07.
Regarding `C=CCOCCOc1ccc(C(=O)OCC(O)CN2CCN(c3ccccc3)CC2)cc1.Cl.Cl` (stereo not drawn) [7a, 1-{3-[(4-Allyloxyethoxybenzoyl)oxy]-2-hydroxypropyl}-4-phenylpiperazinediium dichloride], the melting point lay within 185 to 187 °C. The pKa in data set [1] is 6.47 ± 0.02. In data set [2], the “log kw7.4” value is on record as 3.97 ± 0.03 and the log kw is given as 4.01 ± 0.09.
The corresponding values for `CCCOCCOc1ccc(C(=O)OCC(O)CN2CCN(c3ccccc3OC)CC2)cc1.Cl.Cl` (stereo not drawn) [9b, 1-{2-Hydroxy-3-[(4-propoxyethoxybenzoyl)oxy]propyl}-4-(2-methoxyphenyl)piperazinediium dichloride] are 143 to 146 °C, 6.79 ± 0.02, 4.11 ± 0.02 and 4.20 ± 0.09.
The corresponding values for `CC(C)OCCOc1ccc(C(=O)OCC(O)CN2CCN(c3ccccc3)CC2)cc1.Cl.Cl` (stereo not drawn) [8a, 1-{2-Hydroxy-3-[(4-isopropoxyethoxybenzoyl)oxy]propyl}-4-phenylpiperazinediium dichloride] are 200 to 202 °C, 6.49 ± 0.01, 4.21 ± 0.01 and 4.25 ± 0.05.
As to `C=CCOCCOc1ccc(C(=O)OCC(O)CN2CCN(c3ccccc3OC)CC2)cc1.Cl.Cl` (stereo not drawn) [7b, 1-{3-[(4-Allyloxyethoxybenzoyl)oxy]-2-hydroxypropyl}-4-(2-methoxyphenyl)piperazinediium dichloride], the melting point fell in the range of 178 to 180 °C. Besides, the pKa in data set [1] came to 6.88 ± 0.02. In data set [2], the “log kw7.4” value was 3.78 ± 0.02 and the log kw is listed as 3.89 ± 0.08.
The corresponding values for `CCCOCCOc1ccc(C(=O)OCC(O)CN2CCN(c3ccccc3)CC2)cc1.Cl.Cl` (stereo not drawn) [9a, 1-{2-Hydroxy-3-[(4-propoxyethoxybenzoyl)oxy]propyl}-4-phenylpiperazinediium dichloride] are 197 to 199 °C, 6.5 ± 0.02, 4.29 ± 0.03 and 4.34 ± 0.10.
For `CCCOCCOc1ccc(C(=O)OCC(O)CN2CCN(c3ccc(OC)cc3)CC2)cc1.Cl.Cl` (stereo not drawn) [9c, 1-{2-Hydroxy-3-[(4-propoxyethoxybenzoyl)oxy]propyl}-4-(4-methoxyphenyl)piperazinediium dichloride], in that order: 173 to 175 °C, 6.39 ± 0.01, 3.99 ± 0.02 and 4.03 ± 0.09.

These data come from publication PMC6273861, “Synthesis and Determination of Physicochemical Properties of New 3-(4-Arylpiperazin-1-yl)-2-hydroxypropyl 4-Alkoxyethoxybenzoates” (Molecules, 2016).
